Laboratory results: patent US8093265B2, “Bicycloheteroaryl compounds as P2X7 modulators and uses thereof” (Renovis, Inc., priority 2007, dated 2012)

Tests used:
[1] = Pharmacokinetic evaluation following intravenous and oral administration in rats; assay type: in vivo, rat; conditions: male Sprague-Dawley rats; PO 1 to 5 mg/kg vs IV 1 mg/kg; AUCinf(PO)/AUCinf(IV) dose-normalized
Method: Pharmacokinetic Evaluation of Compounds Following Intravenous and Oral Administration in Rats.
Male Sprague-Dawley rats are acclimated for at least 24 hours prior to experiment initiation. During the acclimation period, all animals receive food and water ad libitum. However, food but not water is removed from the animals' cages at least 12 hours before initiation of the experiment. During the first 3 hours of experimentation, the animals receive only water ad libitum. At least three animals each are tested for intravenous and oral dosage. For intravenous formulation, compounds are dissolved (0.25 to 1 mg/mL) in a mixture of 3% dimethyl sulfoxide, 40% PEG 400 and the rest percentage of 40% Captisol in water (w/v). The animals are weighed before dosing. The determined body weight is used to calculate the dose volume for each animal. Dose volume (mL/kg)=1 mg/kg/formulation concentration (mg/mL)
In instances where the formulation concentrations are less than 0.5 mg/mL, the dosing volume is about 2 mL/kg.
For oral formulation, compounds of this invention are suspended (0.5 to 0.75 mg/mL) in a mixture of 5% of 10% Tween 80 in water (v/v) and 95% of 0.5% methyl cellulose in water (w/v). PO rats are typically dosed through oral gavage following the same dose volume formula as IV to achieve a dose level of 1 to 5 mg/kg. For IV dosing, blood samples are collected (using a pre-heparinized syringe) via the jugular vein catheter at 2, 5, 15, 30, 60, 120, 180, 300, 480, and 1440 minutes post dosing. For PO dosing blood samples are collected (using a pre-heparinized syringe) via the jugular vein catheter before dosing and at 5, 15, 30, 60, 120, 180, 300, 480, and 1440 minutes post dosing. About 250 uL of blood is obtained at each time point from the animal. Equal volumes of 0.9% normal saline are replaced to prevent dehydration. The whole blood samples are maintained on ice until centrifugation. Blood samples are then centrifuged at 14,000 rpm for 10 minutes at 4° C., and the upper plasma layer is then transferred into a clean vial and stored at −80° C. The resulting plasma samples are then analyzed by liquid chromatography-tandem mass spectrometry. Following the measurement of plasma samples and dosing solutions, plasma concentration-time curve is plotted. Plasma exposure is calculated as the area under the concentration-time curve extrapolated to time infinite (AUCinf). The AUCinf is averaged and the oral bioavailability (% F) for individual animal is calculated as: • AUCinf(PO)/AUCinf(IV), normalized to their respective dose levels.
The % F can be reported as the mean % F of all animals dosed orally with the compound of the invention at the specified level.
For the purpose of Table 3, the oral bioavailability of each compound is expressed as follows: […]

[2] = Plasma protein binding by equilibrium dialysis, human plasma; assay type: in vitro ADME; conditions: pH 7.4, equilibrium dialysis 16 hr at 37° C., % Bound
Method: The plasma protein binding of compounds of invention is measured in human and rat plasma, respectively. A stock solution of the tested compound is prepared in 1 mg/mL in DMSO solution. The stock solution is spiked into the blank plasma to get a final compound concentration at 1 μg/mL for testing. Equilibrium dialysis (The equilibrium dialyzer-96TM MWCO 5K Daltons, Harvard Apparatus) method is used for the testing purpose.
The compound spiked plasma (at […]) and phosphate buffer (0.1 M, pH 7.4), 200 μl each, are added into the opposite sides of the membrane in a 96-well equilibrium dialyzer, respectively. The dialyzer plate is covered and incubated overnight (16 hr) at 37° C. in the 8-plate rotor incubator (Big Shot III 8-plate rotor, Harvard Apparatus). Aliquots (100 μL) are taken from the plasma and the buffer compartments, respectively. The matrix effects are eliminated by adding the same volume of blank plasma into the samples from buffer compartments and adding the same volume of phosphate buffer into the samples from plasma compartments. The samples are extracted by using the regular (3:1) protein precipitation extraction procedure (acetonitrile with internal standard). The supernatants are taken for LC/MS/MS analysis. The percentage of plasma-protein binding can be calculated by using the following method: % Free=[Free Drug/Total Drug]*100=[(Peak Area)buffer/(Peak Area)plasma]*100 % Bound=100−% Free.
For the purpose of Table 4, the plasma protein binding of each compound is expressed as follows: […]

[3] = Half-life in human liver microsomes (HLM); assay type: in vitro ADME; conditions: human liver microsomes 0.78 mg/mL, 1 μM compound, NADPH, 37° C.; for half-life at 1 μM: pH 7.4
Method: Half-Life in Human Liver Microsomes (HLM)
Test compounds (1 μM) are incubated with 3.3 mM MgCl2 and 0.78 mg/mL HLM (HL101) in 100 mM potassium phosphate buffer (pH 7.4) at 37° C. on the 96-deep well plate. The reaction mixture is split into two groups, a non-P450 and a P450 group. NADPH is only added to the reaction mixture of the P450 group. An aliquot of samples of P450 group is collected at 0, 10, 30, and 60 min time point, where 0 min time point indicated the time when NADPH is added into the reaction mixture of P450 group. […] Collected aliquots are extracted with acetonitrile solution containing an internal standard. […] The compound concentration in supernatant is measured by LC/MS/MS system.
The half-life value is obtained by plotting the natural logarithm of the peak area ratio of compounds/internal standard versus time. The slope of the line of best fit through the points yields the rate of metabolism (k). This is converted to a half-life value using following equations: Half-life=ln 2/k

P2X7 receptor = target: T1, P2X7 receptor (Homo sapiens, UniProt Q99572); test: IL-1β release assay in differentiated THP-1 cells (Example 9); assay type: cell-based; conditions: THP-1 cells differentiated with LPS and IFN-γ; 30 min pretreatment; BzATP 250 uM; IL-1β by ELISA
T1 construct: host or cells: THP-1 cells differentiated with LPS and IFN-γ
T1 sequence (Q99572 1-595): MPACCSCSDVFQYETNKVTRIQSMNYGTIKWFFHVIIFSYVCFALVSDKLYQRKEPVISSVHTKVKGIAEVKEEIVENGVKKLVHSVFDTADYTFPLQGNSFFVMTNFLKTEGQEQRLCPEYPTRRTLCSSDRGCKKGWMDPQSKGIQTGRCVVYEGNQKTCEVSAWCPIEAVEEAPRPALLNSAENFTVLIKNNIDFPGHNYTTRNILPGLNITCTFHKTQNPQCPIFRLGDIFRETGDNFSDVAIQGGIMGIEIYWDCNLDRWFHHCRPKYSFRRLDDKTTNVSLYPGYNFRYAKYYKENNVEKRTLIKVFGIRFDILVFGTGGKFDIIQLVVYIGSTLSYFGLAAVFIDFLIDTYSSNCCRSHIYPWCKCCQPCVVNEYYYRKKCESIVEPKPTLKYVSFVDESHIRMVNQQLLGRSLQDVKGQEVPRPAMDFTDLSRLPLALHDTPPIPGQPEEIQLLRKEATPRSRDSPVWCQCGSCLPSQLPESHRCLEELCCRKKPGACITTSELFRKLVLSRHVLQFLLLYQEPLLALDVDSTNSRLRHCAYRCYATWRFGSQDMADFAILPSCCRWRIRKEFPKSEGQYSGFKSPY
Method in brief: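 THP-1 cells differentiated 16 h with LPS and IFN-γ (100 ng/mL each), re-primed 2 h with LPS, then pretreated 30 min with compound before 250 uM BzATP for 45 min. Supernatant IL-1β measured by ELISA; background-adjusted % inhibition fitted to a four-parameter logistic for IC50.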

| Structure (SMILES) | Oral Bioavailability F (%) [1] | fraction unbound at 16 hr, 1 μg/mL [2] | Half Life [3] [h] | IC50 (P2X7 receptor) [nM] | half-life at 1 μM [3] [h] |
| --- | --- | --- | --- | --- | --- |
| C[C@H](CO)n1ccc2c(NC(=O)Cc3ccc(C(F)(F)F)c(F)c3)c(Cl)ccc2c1=O [Compound 11, N-[6-Chloro-2-((R)-2-hydroxy-1-methyl-ethyl)-1-oxo-1,2-dihydro-isoquinolin-5-yl]-2-(3-fluoro-4-trifluoromethyl-phenyl)-acetamide] | ++++ (>75% F) | < 0.1 | 1.6 | 5 |  |
| O=C(Cc1ccc(C(F)(F)F)c(F)c1)Nc1c(Cl)ccc2c(=O)n(CCO)ccc12 [Compound 16, N-[6-Chloro-2-(2-hydroxy-ethyl)-1-oxo-1,2-dihydro-isoquinolin-5-yl]-2-(3-fluoro-4-trifluoromethyl-phenyl)-acetamide] | ++++ (>75% F) | < 0.1 | 3.7 | 6 |  |
| O=C(Cc1ccc(F)c(C(F)(F)F)c1)Nc1c(Cl)ccc2c(=O)n(CCO)ccc12 [Compound 19, N-[6-Chloro-2-(2-hydroxy-ethyl)-1-oxo-1,2-dihydro-isoquinolin-5-yl]-2-(4-fluoro-3-trifluoromethyl-phenyl)-acetamide] | + (0-25% F) | < 0.1 | 1.1 | 5 |  |
| Cc1ccc2c(=O)n([C@H]3CCNC3)ccc2c1NC(=O)Cc1ccc(C(F)(F)F)c(F)c1 [Compound 29, 2-(3-Fluoro-4-trifluoromethyl-phenyl)-N-((S)-6-methyl-1-oxo-2-pyrrolidin-3-yl-1,2-dihydro-isoquinolin-5-yl)-acetamide] | + (0-25% F) |  |  | 23 | 3.5 |

Continued by falling IC50 (P2X7 receptor), values first:

| Oral Bioavailability F (%) [1] | fraction unbound at 16 hr, 1 μg/mL [2] | Half Life [3] [h] | IC50 (P2X7 receptor) [nM] | half-life at 1 μM [3] [h] | Structure (SMILES) |
| --- | --- | --- | --- | --- | --- |
| ++++ (>75% F) | < 0.1 | 3.2 | 10 |  | C[C@H](CO)n1ccc2c(NC(=O)Cc3ccc(C(F)(F)F)cc3)c(Cl)ccc2c1=O [Compound 10, N-[6-Chloro-2-((R)-2-hydroxy-1-methyl-ethyl)-1-oxo-1,2-dihydro-isoquinolin-5-yl]-2-(4-trifluoromethyl-phenyl)-acetamide] |
| +++ (51-75% F) | 0.1 to 0.24 |  | 5 | 1.6 | Cc1ccc2c(=O)n([C@H](C)CO)ccc2c1NC(=O)Cc1ccc(Cl)c(F)c1 [Compound 26, 2-(4-Chloro-3-fluoro-phenyl)-N-[2-((R)-2-hydroxy-1-methyl-ethyl)-6-methyl-1-oxo-1,2-dihydro-isoquinolin-5-yl]-acetamide] |
| + (0-25% F) |  |  | 0.7 | 0.3 | Cc1ccc2c(=O)n([C@H](C)CO)ccc2c1C(=O)NCC1CCCCCC1 [Compound 49, 2-((R)-2-Hydroxy-1-methyl-ethyl)-6-methyl-1-oxo-1,2-dihydro-isoquinoline-5-carboxylic acid cycloheptylmethyl-amide] |
| + (0-25% F) |  |  | 0.4 | 1.3 | Cc1ccc2c(=O)n([C@H](C)C(N)=O)ccc2c1NC(=O)Cc1ccc(C(F)(F)F)c(F)c1 [Compound 51, (R)-2-{5-[2-(3-Fluoro-4-trifluoromethyl-phenyl)-acetylamino]-6-methyl-1-oxo-1H-isoquinolin-2-yl}-propionamide] |
